The values below are quoted from earlier work in patent publication US20100210719A1, “O-DESMETHYLVENLAFAXINE” (DR. REDDY'S LABORATORIES LTD., priority 2007, published 2010).

For the series the following is noted: inferred from the major DSC endotherm at about 120° C. and Tg onset at 18° C. reported in U.S. Pat. No. 6,673,838.

In the case of `CN(C)CC(c1ccc(O)cc1)C1(O)CCCCC1` (stereo not shown) [desvenlafaxine succinate], the “stability of the amorphous form” value is given as “highly unstable”.
